Values of other authors, collected in patent US20050032747A1, “COX-2 and FAAH inhibitors” (priority 2003, published 2005).

Test system: prostaglandin synthesis
Conditions: reported by Shen et al. 1977

## Cc1c(CC(=O)O)c2cc(O)ccc2n1C(=O)c1ccc(Cl)cc1 [desmethylindomethacin, O-desmethylindomethacin]
  ability to inhibit prostaglandin synthesis: some ability to inhibit prostaglandin synthesis
